According to article PMC10538245, “Fragment merging approach for design, synthesis, and biological assessment of urea/acetyl hydrazide clubbed thienopyrimidine derivatives as GSK-3β inhibitors” (BMC Chemistry, 2023):

Tests used:
SF-539 = assay: NCI 60-cell line one dose antiproliferative assay; assay type: cell-based; conditions: Homo sapiens; SF-539, CNS Cancer, 10 µM one dose; read-out: Percent inhibition (cell growth inhibition %)
Description: (§1) The National Cancer Institute "NCI", NIH, Bethesda, Maryland, USA (www.dtp.nci.nih.gov) chose six of the final compounds for the Developmental Therapeutic Program (DTP), codes (5a, 5b, 5c, 5d, 6a, 6b). The NCI screening service will favor compounds with drug-like modes of action based on computer-aided design. Selection The criterion for screening is the possibility of the submitted compounds to provide diversity to the NCI small molecule chemical collection. This screen employs 60 different Leukemia, melanoma, and additional tumor cell lines of the human from brain, kidney, lung, ovary, colon, breast, and prostate cancers. All compounds were picked based on their NCI codes. NSC: D-820696/1, NSC: D-820697/1, NSC: D-820698/1, NSC: D-820699/1, NSC: D-820700/1, NSC: D-820701/1. The initial 10 µM one dose percent inhibition assay was performed on the entire NCI 60 cell panel to examine the different chemotypes of this work. The results are presented as a percentage of cell growth on each of the 60 NCI cell line panels for each of the investigated substances in Table 2.
(§2) The NCI cancer screening procedure includes a comparison of all substances to the sixty NCI cell line panel representing leukemia, NSCLC, cell lines from breast cancer, prostate cancer, melanoma, CNS cancer, renal cancer, ovarian cancer, and colon cancer at a single point of 10 uM. The results of the single-dose screen can be presented using a mean graph.

IGROV1 = assay: NCI 60-cell line one dose antiproliferative assay; assay type: cell-based; conditions: Homo sapiens, IGROV-1; IGROV1, Ovarian Cancer, 10 µM one dose; read-out: Percent inhibition (cell growth inhibition %)
Description: as §1, §2

UO-31 = assay: NCI 60-cell line one dose antiproliferative assay; assay type: cell-based; conditions: Homo sapiens; UO-31, Renal Cancer, 10 µM one dose; read-out: Percent inhibition (cell growth inhibition %)
Description: as §1, §2

MALME-3 M = assay: NCI 60-cell line one dose antiproliferative assay; assay type: cell-based; conditions: Homo sapiens, Melanoma, 10 µM one dose, read-out: Percent inhibition (cell growth inhibition %)
Description: as §1, §2

NCI-H522 = assay: NCI 60-cell line one dose antiproliferative assay; assay type: cell-based; conditions: Homo sapiens; NCI-H522, Non-Small Cell Lung Cancer, 10 µM one dose; read-out: Percent inhibition (cell growth inhibition %)
Description: as §1, §2

HOP-92 = assay: NCI 60-cell line one dose antiproliferative assay; assay type: cell-based; conditions: Homo sapiens; HOP-92, Non-Small Cell Lung Cancer, 10 µM one dose; read-out: Percent inhibition (cell growth inhibition %)
Description: as §1, §2

K-562 = assay: NCI 60-cell line one dose antiproliferative assay; assay type: cell-based; conditions: Homo sapiens, K562; K-562, Leukemia, 10 µM one dose; read-out: Percent inhibition (cell growth inhibition %)
Description: as §1, §2

ACHN = assay: NCI 60-cell line one dose antiproliferative assay; assay type: cell-based; conditions: Homo sapiens, Renal Cancer, 10 µM one dose, read-out: Percent inhibition (cell growth inhibition %)
Description: as §1, §2

A498 = assay: NCI 60-cell line one dose antiproliferative assay; assay type: cell-based; conditions: Homo sapiens; A498, Renal Cancer, 10 µM one dose; read-out: Percent inhibition (cell growth inhibition %)
Description: as §1, §2

LOX IMVI = assay: NCI 60-cell line one dose antiproliferative assay; assay type: cell-based; conditions: Homo sapiens, Melanoma, 10 µM one dose, read-out: Percent inhibition (cell growth inhibition %)
Description: as §1, §2

OVCAR-5 = assay: NCI 60-cell line one dose antiproliferative assay; assay type: cell-based; conditions: Homo sapiens; OVCAR-5, Ovarian Cancer, 10 µM one dose; read-out: Percent inhibition (cell growth inhibition %)
Description: as §1, §2

U251 = assay: NCI 60-cell line one dose antiproliferative assay; assay type: cell-based; conditions: Homo sapiens, U-251; U251, CNS Cancer, 10 µM one dose; read-out: Percent inhibition (cell growth inhibition %)
Description: as §1, §2

SR = assay: NCI 60-cell line one dose antiproliferative assay; assay type: cell-based; conditions: Homo sapiens, Leukemia, 10 µM one dose, read-out: Percent inhibition (cell growth inhibition %)
Description: as §1, §2

SN12C = assay: NCI 60-cell line one dose antiproliferative assay; assay type: cell-based; conditions: Homo sapiens, Renal Cancer, 10 µM one dose, read-out: Percent inhibition (cell growth inhibition %)
Description: as §1, §2

SF-295 = assay: NCI 60-cell line one dose antiproliferative assay; assay type: cell-based; conditions: Homo sapiens; SF-295, CNS Cancer, 10 µM one dose; read-out: Percent inhibition (cell growth inhibition %)
Description: as §1, §2

MDA-MB-231/ATCC = assay: NCI 60-cell line one dose antiproliferative assay; assay type: cell-based; conditions: Homo sapiens, Breast Cancer, 10 µM one dose, read-out: Percent inhibition (cell growth inhibition %)
Description: as §1, §2

NCI-H226 = assay: NCI 60-cell line one dose antiproliferative assay; assay type: cell-based; conditions: Homo sapiens; NCI-H226, Non-Small Cell Lung Cancer, 10 µM one dose; read-out: Percent inhibition (cell growth inhibition %)
Description: as §1, §2

MCF7 = assay: NCI 60-cell line one dose antiproliferative assay; assay type: cell-based; conditions: Homo sapiens; MCF7, Breast Cancer, 10 µM one dose; read-out: Percent inhibition (cell growth inhibition %)
Description: as §1, §2

PC-3 = assay: NCI 60-cell line one dose antiproliferative assay; assay type: cell-based; conditions: Homo sapiens; PC-3, Prostate Cancer, 10 µM one dose; read-out: Percent inhibition (cell growth inhibition %)
Description: as §1, §2

CAKI-1 = assay: NCI 60-cell line one dose antiproliferative assay; assay type: cell-based; conditions: Homo sapiens; CAKI-1, Renal Cancer, 10 µM one dose; read-out: Percent inhibition (cell growth inhibition %)
Description: as §1, §2

786–0 = assay: NCI 60-cell line one dose antiproliferative assay; assay type: cell-based; conditions: Homo sapiens; 786–0, Renal Cancer, 10 µM one dose; read-out: Percent inhibition (cell growth inhibition %)
Description: as §1, §2

SF-268 = assay: NCI 60-cell line one dose antiproliferative assay; assay type: cell-based; conditions: Homo sapiens; SF-268, CNS Cancer, 10 µM one dose; read-out: Percent inhibition (cell growth inhibition %)
Description: as §1, §2

UACC-62 = assay: NCI 60-cell line one dose antiproliferative assay; assay type: cell-based; conditions: Homo sapiens; UACC-62, Melanoma, 10 µM one dose; read-out: Percent inhibition (cell growth inhibition %)
Description: as §1, §2

HS 578 T = assay: NCI 60-cell line one dose antiproliferative assay; assay type: cell-based; conditions: Homo sapiens, Breast Cancer, 10 µM one dose, read-out: Percent inhibition (cell growth inhibition %)
Description: as §1, §2

SNB-19 = assay: NCI 60-cell line one dose antiproliferative assay; assay type: cell-based; conditions: Homo sapiens; SNB-19, CNS Cancer, 10 µM one dose; read-out: Percent inhibition (cell growth inhibition %)
Description: as §1, §2

SNB-75 = assay: NCI 60-cell line one dose antiproliferative assay; assay type: cell-based; conditions: Homo sapiens; SNB-75, CNS Cancer, 10 µM one dose; read-out: Percent inhibition (cell growth inhibition %)
Description: as §1, §2

SK-MEL-5 = assay: NCI 60-cell line one dose antiproliferative assay; assay type: cell-based; conditions: Homo sapiens; SK-MEL-5, Melanoma, 10 µM one dose; read-out: Percent inhibition (cell growth inhibition %)
Description: as §1, §2

M14 = assay: NCI 60-cell line one dose antiproliferative assay; assay type: cell-based; conditions: Homo sapiens; M14, Melanoma, 10 µM one dose; read-out: Percent inhibition (cell growth inhibition %)
Description: as §1, §2

T-47D = assay: NCI 60-cell line one dose antiproliferative assay; assay type: cell-based; conditions: Homo sapiens, T47D, Breast Cancer, 10 µM one dose, read-out: Percent inhibition (cell growth inhibition %)
Description: as §1, §2

GSK-3β = GSK-3β (Homo sapiens, UniProt P49841); assay: GSK-3β kinase inhibition, Z'-LYTE FRET assay (Thermo Fisher SelectScreen); assay type: biochemical; conditions: for inhibition at 100 µM: 100 μM single dose
Sequence of GSK-3β (P49841 whole entry): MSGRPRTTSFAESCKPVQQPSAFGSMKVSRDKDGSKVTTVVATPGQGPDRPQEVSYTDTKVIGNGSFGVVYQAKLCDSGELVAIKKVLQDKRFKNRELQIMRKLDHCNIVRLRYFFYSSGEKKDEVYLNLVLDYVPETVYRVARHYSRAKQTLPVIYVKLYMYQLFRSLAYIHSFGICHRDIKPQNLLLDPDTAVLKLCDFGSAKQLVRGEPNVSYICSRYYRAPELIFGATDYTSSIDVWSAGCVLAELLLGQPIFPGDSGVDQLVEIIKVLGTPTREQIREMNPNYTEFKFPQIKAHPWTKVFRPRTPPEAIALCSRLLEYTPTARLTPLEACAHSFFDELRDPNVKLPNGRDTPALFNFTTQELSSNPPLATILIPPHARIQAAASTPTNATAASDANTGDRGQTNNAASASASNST

COc1ccc(C=NNC(=O)COc2ncnc3sc4c(c23)CCCC4)c(OC)c1OC [5a, 2-((5,6,7,8-Tetrahydrobenzo [4,5]thieno[2,3-d]pyrimidin-4-yl)oxy)-N'-(2,3,4-trimethoxybenzylidene) acetohydrazide]
inhibition at 10 µM (SF-539): 5.93%
inhibition at 10 µM (IGROV1): 1.47%
inhibition at 10 µM (UO-31): 23.3%
inhibition at 10 µM (MALME-3 M): 2.96%
inhibition at 10 µM (NCI-H522): 5.39%
inhibition at 10 µM (HOP-92): 2.18%
inhibition at 10 µM (K-562): 7.93%
inhibition at 10 µM (ACHN): 0.55%
inhibition at 10 µM (A498): 11.8%
inhibition at 10 µM (LOX IMVI): 4.82%
inhibition at 10 µM (OVCAR-5): 5%
inhibition at 10 µM (U251): 0.3%
inhibition at 10 µM (SR): 2.15%
inhibition at 10 µM (SN12C): 5.91%
inhibition at 10 µM (SF-295): 0.79%
inhibition at 10 µM (MDA-MB-231/ATCC): 6.61%
inhibition at 10 µM (NCI-H226): 0.3%
inhibition at 10 µM (MCF7): 10.7%
inhibition at 10 µM (PC-3): 2.52%
inhibition at 10 µM (CAKI-1): 7.04%
inhibition at 10 µM (786–0): 0.81%
inhibition at 10 µM (SF-268): 0.3%
inhibition at 10 µM (UACC-62): 8.06%
inhibition at 10 µM (HS 578 T): 7.21%
inhibition at 10 µM (SNB-19): 6.88%
inhibition at 10 µM (SNB-75): 28.5%
inhibition at 10 µM (SK-MEL-5): 1.37%
inhibition at 10 µM (M14): 1.68%
inhibition at 10 µM (T-47D): 4.24%
inhibition at 10 µM (GSK-3β; 10 μM): 6%
inhibition at 100 µM (GSK-3β): 24%
melting point: 280 to 281 °C

O=C(Nc1ccc(Cl)c(C(F)(F)F)c1)Nc1ncnc2sc3c(c12)CCCC3 [9c, 1-(4-Chloro-3-(trifluoromethyl)phenyl)-3-(5,6,7,8tetrahydrobenzo[4,5]thieno[2,3-d]pyrimidin-4-yl)urea]
inhibition at 100 µM (GSK-3β): 68%
melting point: 300 °C
